Laboratory results published in US11932649B1, “5-(3-substituted phenyl)-pyrimido[4,5-d]pyrimidine-2,4,7(1H,3H,8H)-trione derivatives as anticancer agents” (KING FAISAL UNIVERISTY, priority 2023, dated 2024).
Read-outs that look alike come from different tables or passages of the source.

Legend:
[1] = test system: human breast cancer cell line (MCF-7); test: Anticancer activity against human breast cancer cell line MCF-7; type: cell-based
[2] = test system: adeno carcinomic human alveolar basal epithelial cell line (A-549); test: Anticancer activity against human alveolar basal epithelial cell line A-549; type: cell-based

melting point	IC50 ([1]; MCF7)	IC50 [1]	Compound	IC50 ([2]; A549)	IC50 [2]
186 to 188 °C	0.663 µM		O=c1nc(-c2cccc(OCc3ccccc3)c2)c2c(=O)[nH]c(=O)[nH]c2[nH]1 [Compound 4a, 5-(3-(Benzyloxy)phenyl)pyrimido[4,5-d]pyrimidine-2,4,7(1H,3H,8H)-trione]	0.518 µM	
		0.01 µM	5-(3-Hydroxy-4-methoxyphenyl)-1,3-dimethylpyrimido[4,5-d]pyrimidine-2,4,7(1H,3H,8H)-trione [Compound 4d]		0.186 µM
272 to 274 °C	0.295 µM		COc1ccc(-c2nc(=O)[nH]c3[nH]c(=O)[nH]c(=O)c23)cc1O [Compound 4c, 5-(3-Hydroxy-4-methoxyphenyl)pyrimido[4,5-d]pyrimidine-2,4,7(1H,3H,8H)-trione]	0.461 µM	
142 to 144 °C	0.038 µM		O=c1nc(-c2ccc(OCc3ccccc3)cc2)c2c(=O)[nH]c(=O)[nH]c2[nH]1 [Compound 4b, 5-(4-(Benzyloxy)phenyl)pyrimido[4,5-d]pyrimidine-2,4,7(1H,3H,8H)-trione]	0.082 µM	
